From paper PMC11062922 (Nature Chemical Biology, 2023)
One block for each compound: values may come before it.

Legend:
PRKACB = target: T1, PRKACB (Homo sapiens, UniProt P22694); assay: Kinobeads full dose-response competition binding: PRKACB; conditions: Gene Name PRKACB
T1 construct: endogenous in cells

EPHA1 = target: T2, EPHA1 (Homo sapiens, UniProt P21709); assay: Kinobeads two-dose competition binding: EPHA1; conditions: read-out: Lestaurtinib Drugmatrix value, Gene Name EPHA1
T2 construct: endogenous in cells
T2 sequence (P21709 26-976): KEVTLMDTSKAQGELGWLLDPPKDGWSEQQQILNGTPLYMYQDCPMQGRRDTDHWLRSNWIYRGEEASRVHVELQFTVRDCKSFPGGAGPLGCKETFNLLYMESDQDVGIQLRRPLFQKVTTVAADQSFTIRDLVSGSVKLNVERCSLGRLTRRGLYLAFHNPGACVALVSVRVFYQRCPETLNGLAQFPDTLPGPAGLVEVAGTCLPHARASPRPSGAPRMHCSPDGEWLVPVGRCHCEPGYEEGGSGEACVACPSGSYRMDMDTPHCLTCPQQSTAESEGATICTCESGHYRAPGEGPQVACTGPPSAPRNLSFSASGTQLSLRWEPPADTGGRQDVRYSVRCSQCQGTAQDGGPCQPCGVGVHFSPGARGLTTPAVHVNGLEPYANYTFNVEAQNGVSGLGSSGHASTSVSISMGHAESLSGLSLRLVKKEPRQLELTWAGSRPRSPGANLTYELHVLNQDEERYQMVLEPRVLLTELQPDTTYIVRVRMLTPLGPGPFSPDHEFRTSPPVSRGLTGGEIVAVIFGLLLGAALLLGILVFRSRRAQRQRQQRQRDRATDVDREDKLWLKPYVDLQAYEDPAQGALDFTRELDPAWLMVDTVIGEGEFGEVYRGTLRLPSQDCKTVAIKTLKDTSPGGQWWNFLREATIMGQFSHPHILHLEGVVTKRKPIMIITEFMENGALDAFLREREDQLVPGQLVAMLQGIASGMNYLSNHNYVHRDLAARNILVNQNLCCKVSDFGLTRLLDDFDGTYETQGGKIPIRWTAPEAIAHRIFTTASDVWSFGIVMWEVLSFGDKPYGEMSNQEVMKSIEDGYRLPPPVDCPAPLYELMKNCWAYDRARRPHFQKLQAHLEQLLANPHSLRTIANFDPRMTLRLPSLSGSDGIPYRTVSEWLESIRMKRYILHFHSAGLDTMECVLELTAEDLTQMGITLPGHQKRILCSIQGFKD

PIK3CA = target: T3, PIK3CA (Homo sapiens, UniProt P42336); assay: Kinobeads competition binding, Lestaurtinib control replicates: PIK3CA; conditions: read-out: Lestaurtinib Drugmatrix value; Gene Name PIK3CA; one column per experiment number and replicate (R1-R3)
T3 construct: a mixture of lysates from five cancer cell lines; endogenous in cells

ERN2 = target: T4, ERN2 (Homo sapiens, UniProt Q76MJ5); assay: Kinobeads two-dose competition binding: ERN2; conditions: read-out: Lestaurtinib Drugmatrix value, Gene Name ERN2
T4 construct: endogenous in cells

EPHA5 = target: T5, EPHA5 (Homo sapiens, UniProt P54756); assay: Kinobeads two-dose competition binding: EPHA5; conditions: read-out: Lestaurtinib Drugmatrix value, Gene Name EPHA5
T5 construct: endogenous in cells

EPHB1 = target: T6, EPHB1 (Homo sapiens, UniProt P54762); assay: Kinobeads two-dose competition binding: EPHB1; conditions: read-out: Lestaurtinib Drugmatrix value, Gene Name EPHB1; target EPHB1; each column = one Lestaurtinib control replicate (batch_R1-R3)
T6 construct: endogenous in cells
T6 sequence (P54762 18-984): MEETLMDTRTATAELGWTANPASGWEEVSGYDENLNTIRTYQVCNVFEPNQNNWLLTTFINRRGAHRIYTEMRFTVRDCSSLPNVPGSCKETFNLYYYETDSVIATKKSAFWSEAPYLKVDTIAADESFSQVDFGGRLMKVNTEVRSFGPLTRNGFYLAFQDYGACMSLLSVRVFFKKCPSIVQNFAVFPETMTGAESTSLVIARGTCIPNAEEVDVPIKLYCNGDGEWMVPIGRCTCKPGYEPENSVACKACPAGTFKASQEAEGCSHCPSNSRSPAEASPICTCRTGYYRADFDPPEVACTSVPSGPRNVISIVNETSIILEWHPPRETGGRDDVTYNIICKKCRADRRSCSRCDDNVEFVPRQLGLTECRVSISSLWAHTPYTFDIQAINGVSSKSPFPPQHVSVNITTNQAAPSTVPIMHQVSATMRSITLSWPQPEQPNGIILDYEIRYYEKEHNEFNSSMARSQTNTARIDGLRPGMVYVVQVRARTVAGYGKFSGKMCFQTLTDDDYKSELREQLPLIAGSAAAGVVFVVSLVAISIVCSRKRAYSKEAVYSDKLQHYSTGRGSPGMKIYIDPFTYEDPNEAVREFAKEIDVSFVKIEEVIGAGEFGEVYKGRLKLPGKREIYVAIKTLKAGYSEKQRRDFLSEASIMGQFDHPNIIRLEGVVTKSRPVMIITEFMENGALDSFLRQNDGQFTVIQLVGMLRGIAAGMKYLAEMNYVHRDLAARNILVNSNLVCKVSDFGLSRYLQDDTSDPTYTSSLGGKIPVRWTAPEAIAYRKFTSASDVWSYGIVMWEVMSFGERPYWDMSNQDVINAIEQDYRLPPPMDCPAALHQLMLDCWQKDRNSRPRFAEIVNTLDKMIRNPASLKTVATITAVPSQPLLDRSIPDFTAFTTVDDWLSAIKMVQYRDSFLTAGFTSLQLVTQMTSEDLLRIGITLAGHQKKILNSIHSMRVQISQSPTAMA

RIPK2 = target: T7, RIPK2 (Homo sapiens, UniProt O43353); assay: Kinobeads full dose-response competition binding: RIPK2; conditions: Gene Name RIPK2
T7 construct: endogenous in cells

CSNK1D = target: T8, CSNK1D (Homo sapiens, UniProt P48730); assay: Kinobeads full dose-response competition binding: CSNK1D; conditions: Gene Name CSNK1D
T8 construct: endogenous in cells

[1] = EC50 with Correction, doses in nM, read-out: apparent Kd
[2] = eight-dose curve fit, doses in nM

T7 sequence (O43353 whole entry): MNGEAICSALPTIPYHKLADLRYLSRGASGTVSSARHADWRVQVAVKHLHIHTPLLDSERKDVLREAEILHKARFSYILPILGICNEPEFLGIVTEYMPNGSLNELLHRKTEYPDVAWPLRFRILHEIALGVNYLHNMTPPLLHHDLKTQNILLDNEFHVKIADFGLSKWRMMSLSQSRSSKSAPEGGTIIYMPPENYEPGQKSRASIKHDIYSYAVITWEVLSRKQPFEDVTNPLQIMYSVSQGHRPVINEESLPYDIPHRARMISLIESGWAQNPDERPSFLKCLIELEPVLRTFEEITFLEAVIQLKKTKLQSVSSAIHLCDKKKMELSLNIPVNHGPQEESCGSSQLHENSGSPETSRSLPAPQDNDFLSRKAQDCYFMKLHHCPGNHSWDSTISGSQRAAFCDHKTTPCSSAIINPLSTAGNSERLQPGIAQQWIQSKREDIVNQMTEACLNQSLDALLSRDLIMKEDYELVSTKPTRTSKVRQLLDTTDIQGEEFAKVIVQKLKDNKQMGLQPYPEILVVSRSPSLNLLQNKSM
T8 sequence (P48730 whole entry): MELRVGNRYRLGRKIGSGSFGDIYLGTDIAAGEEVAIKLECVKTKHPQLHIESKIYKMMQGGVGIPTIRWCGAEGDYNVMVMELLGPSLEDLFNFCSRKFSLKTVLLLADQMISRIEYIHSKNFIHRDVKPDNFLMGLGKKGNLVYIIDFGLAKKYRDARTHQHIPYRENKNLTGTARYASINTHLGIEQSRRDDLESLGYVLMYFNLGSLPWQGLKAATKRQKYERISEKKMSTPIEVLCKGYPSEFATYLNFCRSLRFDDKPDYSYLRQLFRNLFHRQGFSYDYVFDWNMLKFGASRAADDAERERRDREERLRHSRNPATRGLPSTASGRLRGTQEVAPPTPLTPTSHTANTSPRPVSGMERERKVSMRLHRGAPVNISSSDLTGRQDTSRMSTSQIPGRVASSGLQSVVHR
T5 sequence (P54756 25-1037): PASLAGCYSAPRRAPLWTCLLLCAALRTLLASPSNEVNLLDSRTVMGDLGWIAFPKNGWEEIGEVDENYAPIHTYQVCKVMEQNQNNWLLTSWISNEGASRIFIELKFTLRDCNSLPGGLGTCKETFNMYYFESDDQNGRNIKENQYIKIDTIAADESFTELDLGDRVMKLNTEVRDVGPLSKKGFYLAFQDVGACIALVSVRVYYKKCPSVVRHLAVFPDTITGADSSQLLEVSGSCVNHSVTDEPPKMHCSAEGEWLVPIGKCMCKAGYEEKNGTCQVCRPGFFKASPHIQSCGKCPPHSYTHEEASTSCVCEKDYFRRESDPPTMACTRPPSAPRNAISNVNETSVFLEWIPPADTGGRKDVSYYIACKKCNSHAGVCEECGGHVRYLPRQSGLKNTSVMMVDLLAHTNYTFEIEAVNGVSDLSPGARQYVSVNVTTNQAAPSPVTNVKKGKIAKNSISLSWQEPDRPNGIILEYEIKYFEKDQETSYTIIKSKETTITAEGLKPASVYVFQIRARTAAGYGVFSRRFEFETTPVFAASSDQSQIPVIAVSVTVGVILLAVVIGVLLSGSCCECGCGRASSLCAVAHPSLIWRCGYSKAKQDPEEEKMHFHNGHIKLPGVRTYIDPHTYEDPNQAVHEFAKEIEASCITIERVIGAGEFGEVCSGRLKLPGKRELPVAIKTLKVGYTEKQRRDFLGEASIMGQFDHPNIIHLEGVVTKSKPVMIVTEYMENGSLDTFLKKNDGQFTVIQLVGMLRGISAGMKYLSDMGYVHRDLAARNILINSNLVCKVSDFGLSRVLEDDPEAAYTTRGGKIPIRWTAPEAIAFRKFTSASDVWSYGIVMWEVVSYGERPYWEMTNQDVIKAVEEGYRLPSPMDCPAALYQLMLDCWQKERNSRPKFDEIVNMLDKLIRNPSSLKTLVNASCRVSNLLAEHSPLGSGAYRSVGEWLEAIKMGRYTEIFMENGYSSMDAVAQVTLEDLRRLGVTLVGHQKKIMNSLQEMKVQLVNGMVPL
T4 sequence (Q76MJ5 35-926): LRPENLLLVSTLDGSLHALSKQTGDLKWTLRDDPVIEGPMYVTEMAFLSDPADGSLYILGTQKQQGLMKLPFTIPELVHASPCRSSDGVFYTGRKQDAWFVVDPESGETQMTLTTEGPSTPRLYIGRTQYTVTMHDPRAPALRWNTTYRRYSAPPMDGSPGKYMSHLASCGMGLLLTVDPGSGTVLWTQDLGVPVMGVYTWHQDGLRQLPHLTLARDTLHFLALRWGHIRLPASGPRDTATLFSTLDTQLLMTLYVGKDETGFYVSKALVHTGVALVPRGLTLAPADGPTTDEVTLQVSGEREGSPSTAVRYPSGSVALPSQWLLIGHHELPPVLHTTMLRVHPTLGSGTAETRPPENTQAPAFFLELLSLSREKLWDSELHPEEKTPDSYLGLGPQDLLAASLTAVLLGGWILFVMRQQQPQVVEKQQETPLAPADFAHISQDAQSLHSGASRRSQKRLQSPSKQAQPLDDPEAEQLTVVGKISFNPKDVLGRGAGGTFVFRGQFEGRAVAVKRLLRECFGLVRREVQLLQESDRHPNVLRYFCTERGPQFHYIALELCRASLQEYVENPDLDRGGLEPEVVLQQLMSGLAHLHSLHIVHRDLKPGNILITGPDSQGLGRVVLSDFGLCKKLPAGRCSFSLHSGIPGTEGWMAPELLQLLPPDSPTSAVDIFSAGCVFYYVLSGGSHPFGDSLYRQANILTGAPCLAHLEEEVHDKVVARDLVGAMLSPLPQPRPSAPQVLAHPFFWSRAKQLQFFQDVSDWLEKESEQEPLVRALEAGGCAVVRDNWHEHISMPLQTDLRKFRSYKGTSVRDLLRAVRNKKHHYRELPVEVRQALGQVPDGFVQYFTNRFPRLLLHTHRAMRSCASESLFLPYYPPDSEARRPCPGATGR
T3 sequence (P42336 whole entry): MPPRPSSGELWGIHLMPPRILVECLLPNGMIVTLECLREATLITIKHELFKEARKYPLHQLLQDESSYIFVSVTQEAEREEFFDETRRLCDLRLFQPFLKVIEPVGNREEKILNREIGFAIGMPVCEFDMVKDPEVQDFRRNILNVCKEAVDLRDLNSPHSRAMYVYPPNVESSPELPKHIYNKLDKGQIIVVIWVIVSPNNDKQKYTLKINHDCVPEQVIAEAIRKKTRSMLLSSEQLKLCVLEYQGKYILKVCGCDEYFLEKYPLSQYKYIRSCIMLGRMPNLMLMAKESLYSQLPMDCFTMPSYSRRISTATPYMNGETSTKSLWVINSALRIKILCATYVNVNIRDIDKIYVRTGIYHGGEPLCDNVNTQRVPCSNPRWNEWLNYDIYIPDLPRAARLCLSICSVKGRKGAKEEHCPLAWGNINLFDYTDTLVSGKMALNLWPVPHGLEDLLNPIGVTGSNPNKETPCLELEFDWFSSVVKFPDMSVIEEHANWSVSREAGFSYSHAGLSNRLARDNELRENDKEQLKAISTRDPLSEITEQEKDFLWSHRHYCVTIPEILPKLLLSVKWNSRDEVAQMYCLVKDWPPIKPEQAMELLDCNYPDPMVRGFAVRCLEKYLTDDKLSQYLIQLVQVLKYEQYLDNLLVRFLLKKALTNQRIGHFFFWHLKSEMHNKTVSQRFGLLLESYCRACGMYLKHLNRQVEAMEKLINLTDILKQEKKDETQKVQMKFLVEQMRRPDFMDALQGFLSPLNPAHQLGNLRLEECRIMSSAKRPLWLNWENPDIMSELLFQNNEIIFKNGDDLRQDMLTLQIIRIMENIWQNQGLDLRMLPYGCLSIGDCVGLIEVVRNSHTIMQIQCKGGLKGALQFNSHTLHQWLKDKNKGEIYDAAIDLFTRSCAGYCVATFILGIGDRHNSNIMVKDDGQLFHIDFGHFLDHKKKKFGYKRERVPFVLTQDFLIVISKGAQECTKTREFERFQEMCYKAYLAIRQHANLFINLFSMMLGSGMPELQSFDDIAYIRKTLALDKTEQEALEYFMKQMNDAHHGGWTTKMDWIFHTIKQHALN
T3 sequence (P27986 whole entry partner): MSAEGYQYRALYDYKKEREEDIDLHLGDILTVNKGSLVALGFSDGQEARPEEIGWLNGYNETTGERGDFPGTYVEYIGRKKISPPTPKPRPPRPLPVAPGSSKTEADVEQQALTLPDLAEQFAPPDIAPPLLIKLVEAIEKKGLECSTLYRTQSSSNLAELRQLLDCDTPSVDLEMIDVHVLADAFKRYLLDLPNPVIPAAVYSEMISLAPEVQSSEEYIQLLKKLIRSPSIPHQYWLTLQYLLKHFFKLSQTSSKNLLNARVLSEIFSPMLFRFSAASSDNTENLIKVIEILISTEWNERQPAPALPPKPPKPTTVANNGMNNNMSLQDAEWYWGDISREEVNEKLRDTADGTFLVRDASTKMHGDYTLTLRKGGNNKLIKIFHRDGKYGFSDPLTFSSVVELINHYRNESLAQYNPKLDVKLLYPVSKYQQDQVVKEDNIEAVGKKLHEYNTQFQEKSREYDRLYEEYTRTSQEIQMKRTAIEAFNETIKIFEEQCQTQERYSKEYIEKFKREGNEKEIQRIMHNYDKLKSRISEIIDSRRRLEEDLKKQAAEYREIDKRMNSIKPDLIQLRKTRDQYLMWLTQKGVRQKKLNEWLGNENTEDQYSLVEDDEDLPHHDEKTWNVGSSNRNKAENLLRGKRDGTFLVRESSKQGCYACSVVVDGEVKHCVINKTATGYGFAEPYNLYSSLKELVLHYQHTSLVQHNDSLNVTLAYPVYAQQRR

Relative Intensity 0.3nM (PRKACB; 0.3nM compound, DMSO = 1): 0.9369 | Relative Intensity 1nM (PRKACB; 1nM compound, DMSO = 1): 1.09 | Relative Intensity 3nM (PRKACB; 3nM compound, DMSO = 1): 1.112 | Relative Intensity 10nM (PRKACB; 10nM compound, DMSO = 1): 0.9825 | Relative Intensity 30nM (PRKACB; 30nM compound, DMSO = 1): 0.9287 | Relative Intensity 100nM (PRKACB; 100nM compound, DMSO = 1): 0.758 | Relative Intensity 300nM (PRKACB; 300nM compound, DMSO = 1): 0.7526 | Relative Intensity 1000nM (PRKACB; 1000nM compound, DMSO = 1): 0.5592 | Kd (PRKACB; [1]): 145 nM | EC50 (PRKACB; [2]): 145 nM
Structure (SMILES): CCn1c(-c2nonc2N)nc2c(C#CC(C)(C)O)nc(OCCN)cc21 [GSK902056A]

Structure (SMILES): C[C@]12O[C@H](C[C@]1(O)CO)n1c3ccccc3c3c4c(c5c6ccccc6n2c5c31)CNC4=O [Lestaurtinib]
potency estimated from few doses (EPHA1): 297 nM | potency estimated from few doses (PIK3CA): 156 nM | potency estimated from few doses (ERN2): 346 nM | potency estimated from few doses (EPHA5): 255 nM | potency estimated from few doses (EPHB1): 403 nM

Structure (SMILES): NCc1ccc(-c2nc(-c3ccncc3)c(-c3ccc(Cl)c(O)c3)[nH]2)cc1 [SB-476429-A]
Relative Intensity 0.3nM (RIPK2; 0.3nM compound, DMSO = 1): 0.9341 | Relative Intensity 1nM (RIPK2; 1nM compound, DMSO = 1): 0.8676 | Relative Intensity 3nM (RIPK2; 3nM compound, DMSO = 1): 0.8459 | Relative Intensity 10nM (RIPK2; 10nM compound, DMSO = 1): 0.8036 | Relative Intensity 30nM (RIPK2; 30nM compound, DMSO = 1): 0.6574 | Relative Intensity 100nM (RIPK2; 100nM compound, DMSO = 1): 0.3411 | Relative Intensity 300nM (RIPK2; 300nM compound, DMSO = 1): 0.1841 | Relative Intensity 1000nM (RIPK2; 1000nM compound, DMSO = 1): 0.1065 | Kd (RIPK2; [1]): 28.8 nM | EC50 (RIPK2; [2]): 55.9 nM | Relative Intensity 0.3nM (CSNK1D; 0.3nM compound, DMSO = 1): 0.9053 | Relative Intensity 1nM (CSNK1D; 1nM compound, DMSO = 1): 1.1 | Relative Intensity 3nM (CSNK1D; 3nM compound, DMSO = 1): 1.076 | Relative Intensity 10nM (CSNK1D; 10nM compound, DMSO = 1): 1.106 | Relative Intensity 30nM (CSNK1D; 30nM compound, DMSO = 1): 0.9763 | Relative Intensity 100nM (CSNK1D; 100nM compound, DMSO = 1): 0.9322 | Relative Intensity 300nM (CSNK1D; 300nM compound, DMSO = 1): 0.7176 | Relative Intensity 1000nM (CSNK1D; 1000nM compound, DMSO = 1): 0.4933 | Kd (CSNK1D; [1]): 300 nM | EC50 (CSNK1D; [2]): 300 nM
